Assay results as given in US11542259B2, “Compounds for the treatment of kinase-dependent disorders” (Exelixis, Inc., priority 2018, dated 2023).
pIC50: −log10 of the molar value.

Experiments:
Assay type in all cases: cell-based
Met = Met (Homo sapiens (Human), UniProt P08581); experiment: Met autophosphorylation ELISA in PC-3 cells; conditions: cellular, HGF stimulated, read-out: c-Met IC50
Experimental: PC-3 prostate cancer cells (ATCC #CRL-1435) were seeded at 4×10^4 cells/well onto 24-well plates (Greiner #662165), in DMEM (Thermo Fisher #11995-040) containing 10% FBS (Thermo Fisher #26140-079), 1% MEM NEAA (Thermo Fisher #11140-050), 1% GlutaMax (Thermo Fisher #35050-061), and 1% Penicillin Streptomycin (Thermo Fisher #15140-122). PC-3 cells were incubated at 37° C., 5% CO2 for 24 h and then starved for 3 h in serum-free medium. Test compounds were serially diluted to produce an 8-point dose curve in fresh serum-free medium to a final concentration of 0.3% DMSO (vehicle) and added to the cells and incubated for 1 h. Cells were then stimulated with 100 ng/mL recombinant human HGF (R&D Systems #294-HG-250) for 10 min, washed with cold PBS and immediately lysed with 130 μL of cold 1× lysis buffer [20 mM Tris, 137 mM sodium chloride, 2 mM EDTA, 10% glycerol, 1% NP-40 alternative, 1 mM activated sodium orthovanadate, 1 mM PefaBloc SC (Sigma-Aldrich #11429868001), protease/phosphatase inhibitor tablet (Thermo Fisher #A32959)]. Lysates were clarified by centrifugation and 100 μL/well added into the PathScan phospho-Met (panTyr) Sandwich ELISA (Cell Signaling Technology #7333). Assay was performed according to manufacturer's instructions. Positive control wells (100% activity) contained HGF-stimulated, DMSO-treated cell lysates. Negative control wells (0% activity) contained HGF-stimulated, reference inhibitor-treated cell lysates. IC50 values were calculated by nonlinear regression analysis using a 4-parameter logistic curve fit in ActivityBase XE (IDBS).

AXL = AXL (Homo sapiens (Human), UniProt P30530); experiment: AXL autophosphorylation ELISA in A-172 cells; conditions: cellular, Gas6 stimulated
Experimental: A-172 glioblastoma cells (ATCC #CRL-1620) were seeded at 2.5×10^5 cells/well onto 24-well plates (Greiner #662165), in DMEM (Thermo Fisher #11995-040) containing 10% FBS (Thermo Fisher #26140-079), 1% MEM NEAA (Thermo Fisher #11140-050), 1% GlutaMax (Thermo Fisher #35050-061) and 1% Penicillin Streptomycin (Thermo Fisher #15140-122). A-172 cells were incubated at 37° C., 5% CO2 for 24 h and then starved for 24 h in serum-free medium. Test compounds were serially diluted to produce an 8-point dose curve in fresh serum-free medium to a final concentration of 0.3% DMSO (vehicle) and added to the cells and incubated for 1 h. Cells were then stimulated with 1 μg/mL recombinant human Gas6 (R&D Systems #885-GSB-500) for 15 min, washed with cold PBS and immediately lysed with 150 μL of cold 1× lysis buffer [20 mM Tris, 137 mM sodium chloride, 2 mM EDTA, 10% glycerol, 1% NP-40 alternative, 1 mM activated sodium orthovanadate, 1 mM PefaBloc SC (Sigma-Aldrich #11429868001), protease/phosphatase inhibitor tablet (Thermo Fisher #A32959)]. Lysates were collected and 100 μL/well added into the human phospho-AXL DuoSet IC ELISA (R&D Systems #DYC2228-2). Assay was performed according to manufacturer's instructions and sample phospho-AXL concentrations were extrapolated using human phospho-AXL control (R&D Systems #841645) as a standard. Positive control wells (100% activity) contained Gash-stimulated, DMSO-treated cell lysates. Negative control wells (0% activity) contained Gash-stimulated, reference inhibitor-treated cell lysates. IC50 values were calculated by nonlinear regression analysis using a 4-parameter logistic curve fit in ActivityBase XE (IDBS).

KDR = KDR (Homo sapiens (Human), UniProt P35968); experiment: KDR autophosphorylation ELISA in HUVEC cells; conditions: cellular, VEGF165 stimulated
Experimental: Human umbilical vein endothelial cells or HUVEC (Lonza #C2519A) were seeded at 2×10^4 cells/well onto 96-well plates (Corning #3904), in EGM-2 growth medium (Lonza #CC-3162) containing 1% Penicillin Streptomycin (Thermo Fisher #15140-122). HUVEC cells were incubated at 37° C., 5% CO2 for 24 h and then starved for 24 h in serum-free EBM-2 basal medium (Lonza #CC-3156) containing 1% Penicillin Streptomycin. Test compounds were serially diluted to produce an 8-point dose curve in fresh serum-free medium to a final concentration of 0.3% DMSO (vehicle) and added to the cells and incubated for 1 h. Cells were then stimulated with 100 ng/mL recombinant human VEGF165 (R&D Systems #293-VE-500) for 5 min, washed with cold PBS, and immediately lysed with 130 μL of cold 1× lysis buffer [20 mM Tris, 137 mM sodium chloride, 2 mM EDTA, 10% glycerol, 1% NP-40 alternative, 1 mM activated sodium orthovanadate, 1 mM PefaBloc SC (Sigma-Aldrich #11429868001), protease/phosphatase inhibitor tablet (Thermo Fisher #A32959)]. Lysates were collected and 100 μL/well added into the human phospho-KDR DuoSet IC ELISA (R&D Systems #DYC1766-2). Assay was performed according to manufacturer's instructions and sample phospho-KDR concentrations were extrapolated using human phospho-KDR control (R&D Systems #841421) as a standard. Positive control wells (100% activity) contained VEGF165-stimulated, DMSO-treated cell lysates. Negative control wells (0% activity) contained non-stimulated cell lysates. IC50 values were calculated by nonlinear regression analysis using a 4-parameter logistic curve fit in ActivityBase XE (IDBS).

AXL, sequence (P30530 26-894): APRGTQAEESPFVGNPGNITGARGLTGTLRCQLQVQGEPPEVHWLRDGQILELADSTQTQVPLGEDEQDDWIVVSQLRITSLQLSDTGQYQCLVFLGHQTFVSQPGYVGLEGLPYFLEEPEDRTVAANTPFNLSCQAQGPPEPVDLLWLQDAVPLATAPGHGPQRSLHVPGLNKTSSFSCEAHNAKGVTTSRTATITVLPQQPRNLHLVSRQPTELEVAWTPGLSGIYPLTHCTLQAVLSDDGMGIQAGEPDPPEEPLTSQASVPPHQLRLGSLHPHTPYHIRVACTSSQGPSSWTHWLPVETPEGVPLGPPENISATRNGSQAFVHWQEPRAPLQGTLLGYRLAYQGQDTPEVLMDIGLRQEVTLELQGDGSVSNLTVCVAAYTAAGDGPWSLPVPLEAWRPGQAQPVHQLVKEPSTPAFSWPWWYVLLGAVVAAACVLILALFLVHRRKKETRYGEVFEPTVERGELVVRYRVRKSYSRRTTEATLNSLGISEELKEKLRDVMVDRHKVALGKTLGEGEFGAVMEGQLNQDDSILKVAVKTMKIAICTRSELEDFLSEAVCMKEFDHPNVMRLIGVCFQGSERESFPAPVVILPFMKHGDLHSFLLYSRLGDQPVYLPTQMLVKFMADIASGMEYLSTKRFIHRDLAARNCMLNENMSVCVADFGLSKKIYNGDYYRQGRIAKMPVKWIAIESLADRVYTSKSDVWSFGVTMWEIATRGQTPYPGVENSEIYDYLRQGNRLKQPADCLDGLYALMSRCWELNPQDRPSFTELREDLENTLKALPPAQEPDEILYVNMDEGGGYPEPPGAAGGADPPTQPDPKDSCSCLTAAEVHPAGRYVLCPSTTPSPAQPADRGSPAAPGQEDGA
Met, sequence (P08581 25-1390): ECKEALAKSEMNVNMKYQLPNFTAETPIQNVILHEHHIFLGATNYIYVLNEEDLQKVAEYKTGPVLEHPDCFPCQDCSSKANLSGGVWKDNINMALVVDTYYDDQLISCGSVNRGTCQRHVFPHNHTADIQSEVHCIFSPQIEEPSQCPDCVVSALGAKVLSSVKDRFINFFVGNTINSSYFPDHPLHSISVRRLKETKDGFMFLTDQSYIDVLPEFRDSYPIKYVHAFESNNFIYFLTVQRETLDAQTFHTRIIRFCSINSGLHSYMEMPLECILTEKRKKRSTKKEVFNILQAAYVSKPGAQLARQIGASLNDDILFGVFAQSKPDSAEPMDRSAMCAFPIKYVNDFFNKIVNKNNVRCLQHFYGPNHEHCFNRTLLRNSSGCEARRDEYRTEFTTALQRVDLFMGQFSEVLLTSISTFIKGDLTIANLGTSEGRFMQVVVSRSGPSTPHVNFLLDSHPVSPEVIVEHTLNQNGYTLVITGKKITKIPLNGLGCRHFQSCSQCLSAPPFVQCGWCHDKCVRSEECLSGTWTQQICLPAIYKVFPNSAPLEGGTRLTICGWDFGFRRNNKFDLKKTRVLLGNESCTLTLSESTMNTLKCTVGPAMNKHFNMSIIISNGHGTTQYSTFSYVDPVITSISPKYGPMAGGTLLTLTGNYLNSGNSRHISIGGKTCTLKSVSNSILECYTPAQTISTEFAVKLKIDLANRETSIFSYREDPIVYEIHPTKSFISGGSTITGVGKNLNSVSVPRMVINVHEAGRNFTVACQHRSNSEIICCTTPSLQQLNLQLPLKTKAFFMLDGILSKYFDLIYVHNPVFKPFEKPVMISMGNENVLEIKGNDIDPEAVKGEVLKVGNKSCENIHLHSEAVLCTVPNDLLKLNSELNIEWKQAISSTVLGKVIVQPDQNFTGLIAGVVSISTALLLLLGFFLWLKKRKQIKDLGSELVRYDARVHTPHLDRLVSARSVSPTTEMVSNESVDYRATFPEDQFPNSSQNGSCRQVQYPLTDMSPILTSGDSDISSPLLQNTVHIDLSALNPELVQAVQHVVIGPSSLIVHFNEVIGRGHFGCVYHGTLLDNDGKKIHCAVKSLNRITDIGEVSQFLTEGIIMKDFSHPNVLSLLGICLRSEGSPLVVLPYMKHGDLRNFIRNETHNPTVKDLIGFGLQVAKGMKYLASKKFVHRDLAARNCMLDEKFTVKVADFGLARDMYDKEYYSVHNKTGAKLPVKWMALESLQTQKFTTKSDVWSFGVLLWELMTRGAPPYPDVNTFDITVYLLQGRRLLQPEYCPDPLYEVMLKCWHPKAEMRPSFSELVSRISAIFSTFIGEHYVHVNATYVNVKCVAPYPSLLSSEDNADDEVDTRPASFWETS
KDR, sequence (P35968 20-1356): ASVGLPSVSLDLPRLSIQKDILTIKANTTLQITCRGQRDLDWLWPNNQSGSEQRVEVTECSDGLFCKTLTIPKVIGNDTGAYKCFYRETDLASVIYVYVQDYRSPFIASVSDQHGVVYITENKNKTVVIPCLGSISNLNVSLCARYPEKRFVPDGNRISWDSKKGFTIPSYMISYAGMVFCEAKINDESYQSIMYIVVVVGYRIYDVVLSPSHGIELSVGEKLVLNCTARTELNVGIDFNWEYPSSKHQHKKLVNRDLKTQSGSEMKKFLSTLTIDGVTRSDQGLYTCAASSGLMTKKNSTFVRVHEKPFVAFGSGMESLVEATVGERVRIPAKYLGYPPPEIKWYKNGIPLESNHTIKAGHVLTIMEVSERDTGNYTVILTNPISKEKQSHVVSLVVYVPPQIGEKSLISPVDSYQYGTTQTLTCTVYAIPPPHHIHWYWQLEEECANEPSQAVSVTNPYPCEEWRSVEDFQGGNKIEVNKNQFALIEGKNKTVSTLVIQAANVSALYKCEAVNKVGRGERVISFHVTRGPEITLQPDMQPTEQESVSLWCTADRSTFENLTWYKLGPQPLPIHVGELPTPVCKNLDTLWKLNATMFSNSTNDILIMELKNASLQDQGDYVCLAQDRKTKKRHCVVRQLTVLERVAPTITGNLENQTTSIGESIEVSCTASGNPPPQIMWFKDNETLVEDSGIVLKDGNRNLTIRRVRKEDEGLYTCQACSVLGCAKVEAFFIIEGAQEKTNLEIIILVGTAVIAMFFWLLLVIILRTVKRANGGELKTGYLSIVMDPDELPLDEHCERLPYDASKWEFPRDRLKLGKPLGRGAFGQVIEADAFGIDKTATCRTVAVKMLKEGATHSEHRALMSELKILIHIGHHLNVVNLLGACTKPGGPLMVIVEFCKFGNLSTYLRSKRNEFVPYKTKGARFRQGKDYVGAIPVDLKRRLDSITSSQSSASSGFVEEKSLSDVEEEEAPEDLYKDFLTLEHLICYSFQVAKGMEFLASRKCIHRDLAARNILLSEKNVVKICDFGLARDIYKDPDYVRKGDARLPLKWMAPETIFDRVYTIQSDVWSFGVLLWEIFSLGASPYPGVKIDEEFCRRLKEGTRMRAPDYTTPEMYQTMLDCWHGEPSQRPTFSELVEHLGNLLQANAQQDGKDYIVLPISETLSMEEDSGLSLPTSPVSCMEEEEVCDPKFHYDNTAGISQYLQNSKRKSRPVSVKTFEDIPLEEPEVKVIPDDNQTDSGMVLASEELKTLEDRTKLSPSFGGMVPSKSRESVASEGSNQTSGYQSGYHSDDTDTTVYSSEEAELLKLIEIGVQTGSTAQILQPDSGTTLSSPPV

With `CNC(=O)c1cc2c(Oc3ccc(NC(=O)C4(C(=O)Nc5ccc(F)cc5)CC4)cc3)ccnc2cc1N` [Compound 88, 1-N-[4-[7-Amino-6-(methylcarbamoyl)quinolin-4-yl]oxyphenyl]-1-N′-(4-fluorophenyl)cyclopropane-1,1-dicarboxamide] the pIC50 (Met) was 6.52 to 7.00, the pIC50 (AXL) was 6.52 to 7.00 and the pIC50 (KDR) was < 6.52.
With `CNC(=O)c1cc2c(Oc3ccc(NC(=O)C4(C(=O)N(C)c5ccc(F)cc5)CC4)cc3)ccnc2cc1OC` [Compound 263, 1-N′-(4-Fluorophenyl)-1-N-[4-[7-methoxy-6-(methylcarbamoyl)quinolin-4-yl]oxyphenyl]-1-N′-methylcyclopropane-1,1-dicarboxamide] the pIC50 (Met) was < 6.52, the pIC50 (AXL) was < 6.52 and the pIC50 (KDR) was < 6.52.
With `CNC(=O)c1cc2c(Oc3ccc(NC(=O)C4(C(=O)N(C)c5ccc(F)cc5)CC4)cc3F)ccnc2cc1OC` [Compound 262, 1-N-[3-Fluoro-4-[7-methoxy-6-(methylcarbamoyl)quinolin-4-yl]oxyphenyl]-1-N′-(4-fluorophenyl)-1-N′-methylcyclopropane-1,1-dicarboxamide] the pIC50 (Met) was < 6.52, the pIC50 (AXL) was < 6.52 and the pIC50 (KDR) was < 6.52.
In the case of `NC(=O)c1cc2c(Oc3ccc(NC(=O)C4(C(=O)Nc5ccc(F)cc5)CC4)cc3)ccnc2cc1N` [Compound 87, 1-N-[4-(7-Amino-6-carbamoylquinolin-4-yl)oxyphenyl]-1-N′-(4-fluorophenyl)cyclopropane-1,1-dicarboxamide], the pIC50 (Met) was 6.52 to 7.00, the pIC50 (AXL) was 6.52 to 7.00 and the pIC50 (KDR) was < 6.52.
Compound `CO/N=C(\C)c1cc2c(Oc3ccc(NC(=O)C4(C(=O)Nc5ccc(F)cc5)CC4)cc3)ccnc2cc1OC` [Compound 35, 1-N′-(4-fluorophenyl)-1-N-[4-[7-methoxy-6-[(E)-N-methoxy-C-methylcarbonimidoyl]quinolin-4-yl]oxyphenyl]cyclopropane-1,1-dicarboxamide] has a pIC50 (Met) of 6.52 to 7.00, a pIC50 (AXL) of 6.52 to 7.00 and a pIC50 (KDR) of 6.52 to 7.00.
`CNc1cc2nccc(Oc3ccc(NC(=O)C4(C(=O)Nc5ccc(F)cc5)CC4)cc3)c2cc1C(N)=O` [Compound 82, 1-N-[4-[6-Carbamoyl-7-(methylamino)quinolin-4-yl]oxyphenyl]-1-N′-(4-fluorophenyl)cyclopropane-1,1-dicarboxamide] gave a pIC50 (Met) of 7.00 to 8.00, a pIC50 (AXL) of 7.00 to 8.00 and a pIC50 (KDR) of 7.00 to 8.00.
`O=C(NOC[C@@H](O)CO)c1ccc2c(Oc3ccc(NC(=O)C4(C(=O)Nc5ccc(F)cc5)CC4)cc3)ccnc2c1` [Compound 170, 1-N-[4-[7-[[(2S)-2,3-Dihydroxypropoxy]carbamoyl]quinolin-4-yl]oxyphenyl]-1-N′-(4-fluorophenyl)cyclopropane-1,1-dicarboxamide] was tested, and the pIC50 (Met) was < 6.52, the pIC50 (AXL) was 6.52 to 7.00 and the pIC50 (KDR) was 6.52 to 7.00.
Work on `O=C(Nc1ccc(F)cc1)C1(C(=O)Nc2ccc(Oc3ccnc4ccc(-c5nnco5)cc34)cc2)CC1` [Compound 221, 1-N′-(4-Fluorophenyl)-1-N-[4-[6-(1,3,4-oxadiazol-2-yl)quinolin-4-yl]oxyphenyl]cyclopropane-1,1-dicarboxamide] yielded a pIC50 (Met) of 6.52 to 7.00, a pIC50 (AXL) of 7.00 to 8.00 and a pIC50 (KDR) of 6.52 to 7.00.
With `CC(=O)c1ccc2c(Oc3ccc(NC(=O)C4(C(=O)Nc5ccc(F)cc5)CC4)cc3)ccnc2c1` [Compound 255, 1-N-[4-(7-Acetylquinolin-4-yl)oxyphenyl]-1-N′-(4-fluorophenyl)cyclopropane-1,1-dicarboxamide] the pIC50 (Met) was 6.52 to 7.00, the pIC50 (AXL) was < 6.52 and the pIC50 (KDR) was < 6.52.
For `NS(=O)(=O)c1ccc2c(Oc3ccc(NC(=O)C4(C(=O)Nc5ccc(F)cc5)CC4)cc3)ccnc2c1` [Compound 254, 1-N′-(4-Fluorophenyl)-1-N-[4-(7-sulfamoylquinolin-4-yl)oxyphenyl]cyclopropane-1,1-dicarboxamide], the pIC50 (Met) was 6.52 to 7.00, the pIC50 (AXL) was 6.52 to 7.00 and the pIC50 (KDR) was < 6.52.
`NS(=O)(=O)c1ccc2nccc(Oc3ccc(NC(=O)C4(C(=O)Nc5ccc(F)cc5)CC4)cc3)c2c1` [Compound 209, 1-N′-(4-Fluorophenyl)-1-N-[4-(6-sulfamoylquinolin-4-yl)oxyphenyl]cyclopropane-1,1-dicarboxamide] showed a pIC50 (Met) of 6.52 to 7.00, a pIC50 (AXL) of 6.52 to 7.00 and a pIC50 (KDR) of 7.00 to 8.00.
For `CNC(=O)c1cc2c(Oc3ccc(NC(=O)C4(C(=O)Nc5ccc(F)cc5)CC4)cc3)ccnc2cc1NC` [Compound 83, 1-N′-(4-Fluorophenyl)-1-N-[4-[7-(methylamino)-6-(methylcarbamoyl)quinolin-4-yl]oxyphenyl]cyclopropane-1,1-dicarboxamide], the pIC50 (Met) was 7.00 to 8.00, the pIC50 (AXL) was 7.00 to 8.00 and the pIC50 (KDR) was 7.00 to 8.00.
Compound `CNC(=O)c1cc2c(Oc3ccc(NC(=O)C4(C(=O)Nc5ccc(C(F)(F)F)cc5)CC4)cc3F)ccnc2cc1OC` [Compound 273, 1-N′-[3-Fluoro-4-[7-methoxy-6-(methylcarbamoyl)quinolin-4-yl]oxyphenyl]-1-N-[4-(trifluoromethyl)phenyl]cyclopropane-1,1-dicarboxamide] has a pIC50 (Met) of 6.52 to 7.00, a pIC50 (AXL) of 6.52 to 7.00 and a pIC50 (KDR) of 7.00 to 8.00.
`CO/N=C/c1cc2c(Oc3ccc(NC(=O)C4(C(=O)Nc5ccc(F)cc5)CC4)cc3)ccnc2cc1OC` [Compound 193, 1-N′-(4-Fluorophenyl)-1-N-[4-[7-methoxy-6-[(E)-methoxyiminomethyl]quinolin-4-yl]oxyphenyl]cyclopropane-1,1-dicarboxamide] showed a pIC50 (Met) of 6.52 to 7.00, a pIC50 (AXL) of 7.00 to 8.00 and a pIC50 (KDR) of 6.52 to 7.00.
`CO/N=C(\C)c1ccc2c(Oc3ccc(NC(=O)C4(C(=O)Nc5ccc(F)cc5)CC4)cc3)ccnc2c1` [Compound 256, 1-N′-(4-Fluorophenyl)-1-N-[4-[7-[(E)-N-methoxy-C-methylcarbonimidoyl]quinolin-4-yl]oxyphenyl]cyclopropane-1,1-dicarboxamide] was tested, and the pIC50 (Met) was 6.52 to 7.00, the pIC50 (AXL) was 6.52 to 7.00 and the pIC50 (KDR) was 6.52 to 7.00.
For `COC(=O)Nc1ccc2c(Oc3ccc(NC(=O)C4(C(=O)Nc5ccc(F)cc5)CC4)cc3)ccnc2c1` [Compound 282, Methyl N-[4-[4-[[1-[(4-fluorophenyl)carbamoyl]cyclopropanecarbonyl]-amino]phenoxy]quinolin-7-yl]carbamate], the pIC50 (Met) was 6.52 to 7.00, the pIC50 (AXL) was 6.52 to 7.00 and the pIC50 (KDR) was < 6.52.
In the case of `CNc1cc2nccc(Oc3ccc(NC(=O)C4(C(=O)Nc5ccc(F)cc5)CC4)cc3)c2cc1C(=O)O` [Compound 81, 4-[4-[[1-[(4-Fluorophenyl)carbamoyl]cyclopropane-carbonyl]amino]phenoxy]-7-(methylamino)quinoline-6-carboxylic Acid], the pIC50 (Met) was < 6.52, the pIC50 (AXL) was < 6.52 and the pIC50 (KDR) was < 6.52.
